Experiment [1] has as its target T1, Muscarinic acetylcholine receptor M3 (Homo sapiens, UniProt P20309). The experiment can be described thus: Displacement of [3H]QNB from human muscarinic M3 receptor at 10 uM. Background: Loss of bound radioactivity is the signal in a displacement assay; it reports binding, not function.
Target sequence in this assay (P20309 whole entry, looked up): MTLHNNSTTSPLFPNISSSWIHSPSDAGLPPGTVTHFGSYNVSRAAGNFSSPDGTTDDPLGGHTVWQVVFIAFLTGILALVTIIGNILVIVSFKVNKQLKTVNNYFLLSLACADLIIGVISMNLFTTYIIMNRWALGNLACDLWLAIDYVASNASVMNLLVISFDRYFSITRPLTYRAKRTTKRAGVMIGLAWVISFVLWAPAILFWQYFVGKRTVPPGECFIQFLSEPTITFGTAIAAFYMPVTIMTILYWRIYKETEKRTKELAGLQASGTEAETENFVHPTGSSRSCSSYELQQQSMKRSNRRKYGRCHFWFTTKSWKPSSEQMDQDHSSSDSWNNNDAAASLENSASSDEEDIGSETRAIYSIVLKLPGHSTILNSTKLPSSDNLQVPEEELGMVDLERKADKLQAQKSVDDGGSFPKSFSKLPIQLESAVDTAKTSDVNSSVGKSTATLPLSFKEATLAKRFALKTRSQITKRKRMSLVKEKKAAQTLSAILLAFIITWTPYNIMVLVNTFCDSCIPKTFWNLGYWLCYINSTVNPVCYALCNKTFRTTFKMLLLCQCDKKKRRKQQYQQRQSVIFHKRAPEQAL
Experiment [2] addresses T2, D(1B) dopamine receptor (Homo sapiens, UniProt P21918). Briefly: Displacement of [3H]SCH23390 from human dopamine D5 receptor at 10 uM.
The target of experiment [3] is T2, D(1B) dopamine receptor. The experiment can be described thus: Binding affinity to human dopamine D5 receptor.
The target in experiment [4] is T3, Histamine H2 receptor (Homo sapiens, UniProt P25021). The experiment can be described thus: Binding affinity to human histamine H2 receptor.
T3 sequence (P25021 whole entry): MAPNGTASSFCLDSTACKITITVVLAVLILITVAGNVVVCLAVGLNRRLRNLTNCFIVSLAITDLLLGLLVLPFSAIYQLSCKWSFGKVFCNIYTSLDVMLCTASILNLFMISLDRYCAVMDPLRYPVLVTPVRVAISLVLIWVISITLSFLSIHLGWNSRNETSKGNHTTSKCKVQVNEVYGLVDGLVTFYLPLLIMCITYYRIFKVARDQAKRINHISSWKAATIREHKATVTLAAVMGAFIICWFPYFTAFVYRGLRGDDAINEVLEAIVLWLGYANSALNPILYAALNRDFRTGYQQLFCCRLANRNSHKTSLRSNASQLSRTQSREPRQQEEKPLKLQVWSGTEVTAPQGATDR
Experiment [5] has as its target T1, Muscarinic acetylcholine receptor M3. The experiment can be described thus: Binding affinity to human muscarinic M3 receptor.
Target sequence in this assay (P20309 whole entry): as the sequence (P20309 whole entry, looked up) above
Experiment [6] has as its target T3, Histamine H2 receptor. Conditions: 10 uM.
Description: Inhibition of human histamine H2 receptor at 10 uM

pKi: −log10 of the molar value.

T2 sequence (P21918 whole entry): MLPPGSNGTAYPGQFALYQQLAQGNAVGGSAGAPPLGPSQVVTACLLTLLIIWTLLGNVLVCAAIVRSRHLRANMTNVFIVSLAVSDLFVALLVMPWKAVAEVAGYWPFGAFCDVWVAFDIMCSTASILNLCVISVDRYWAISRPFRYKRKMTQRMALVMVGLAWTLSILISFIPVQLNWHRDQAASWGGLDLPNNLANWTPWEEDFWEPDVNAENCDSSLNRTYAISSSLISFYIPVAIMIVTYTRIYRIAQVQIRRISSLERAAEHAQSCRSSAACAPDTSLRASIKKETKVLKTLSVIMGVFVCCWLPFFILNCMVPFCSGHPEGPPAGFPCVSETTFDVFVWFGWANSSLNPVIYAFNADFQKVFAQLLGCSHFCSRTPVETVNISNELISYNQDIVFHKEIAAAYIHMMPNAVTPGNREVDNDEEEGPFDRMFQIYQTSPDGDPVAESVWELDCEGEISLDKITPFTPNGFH

For the molecule `CO[C@H]1C[C@]2(CC[C@@]3(O2)[C@]2(CO2)C[C@@H](OC(C)=O)[C@@H]2[C@]34CCC[C@]2(C)C(=O)OC4)CO1`, in experiment [1], the inhibition (commonly how much of the control response was suppressed) was above 50%.
With `C[C@@]12CCC[C@]3(C)C(=O)O[C@H](C[C@@]4(CO4)[C@]14CC[C@]1(COC(O)C1)O4)[C@H]23` (mixture of isomers), the inhibition (in experiment [1]; at D(1B) dopamine receptor [2]) was above 50% in each case.
`C[C@@]12CCC[C@]3(C)C(=O)O[C@H](C[C@@]4(CO4)[C@]1(O)CCc1ccoc1)[C@H]23` [LEONOTININ]: the negative-log Ki (pKi) (at D(1B) dopamine receptor [3]; at Histamine H2 receptor [4]; in experiment [5]) was below 5.00 throughout. Besides, the inhibition at Histamine H2 receptor [6] is above 50%.

(Values after ChEMBL document CHEMBL2034903, “Bis-spirolabdane diterpenoids from Leonotis nepetaefolia” (J Nat Prod, 2012).)
